Data as given in the supplement of paper PMC10307832.

Key:
Test in all cases: relative viability (nuclei count vs DMSO), 5 days (fraction); higher = more cells survive
H3255 = system: H3255
In short: (§1)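 Relative viability equals treated-well nuclei counts divided by vehicle-well nuclei counts. Counts came from 4× images of lung cancer cell lines grown in 1536-well plates for 5 days after pin-tool dosing on the day after seeding. Dosing used one drug alone or a fixed anchor-drug dose plus five library-drug doses (not always all listed) in √10 steps, and values are medians of duplicate plates.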

NCI-H1563 = system: NCI-H1563
In short: as §1

NCI-H2087 = system: NCI-H2087
In short: as §1

NCI-H838 = system: NCI-H838
In short: as §1

EPLC-272H = system: EPLC-272H
In short: as §1

NCI-H1944 = system: NCI-H1944
In short: as §1

ChaGo-K-1 = system: ChaGo-K-1
In short: as §1

SK-MES-1 = system: SK-MES-1
In short: as §1

LCLC-103H = system: LCLC-103H
In short: as §1

NCI-H1395 = system: NCI-H1395
In short: as §1

NCI-H2085 = system: NCI-H2085
In short: as §1

SMILES: CC(=O)O[C@@]12CO[C@@H]1C[C@H](O)[C@@]1(C)C(=O)[C@H](O)C3=C(C)[C@@H](OC(=O)[C@H](O)[C@@H](NC(=O)OC(C)(C)C)c4ccccc4)C[C@@](O)([C@@H](OC(=O)c4ccccc4)[C@H]21)C3(C)C [Docetaxel] + N=C(N)NC(=N)NCCc1ccccc1 [Phenformin] (partner 250 µM)
- relative viability (H3255; first compound 0.0002 µM): 0.353
- relative viability (H3255; first compound 0.000632 µM): 0.349
- relative viability (H3255; first compound 0.002 µM): 0.312
- relative viability (H3255; first compound 0.006325 µM): 0.357
- relative viability (H3255; first compound 0.02 µM): 0.259
- relative viability (NCI-H1563; first compound 0.0002 µM): 0.619
- relative viability (NCI-H1563; first compound 0.000632 µM): 0.683
- relative viability (NCI-H1563; first compound 0.002 µM): 0.661
- relative viability (NCI-H1563; first compound 0.006325 µM): 0.582
- relative viability (NCI-H1563; first compound 0.02 µM): 0.479
- relative viability (NCI-H2087; first compound 0.0002 µM): 0.44
- relative viability (NCI-H2087; first compound 0.000632 µM): 0.38
- relative viability (NCI-H2087; first compound 0.002 µM): 0.152
- relative viability (NCI-H2087; first compound 0.006325 µM): 0.159
- relative viability (NCI-H2087; first compound 0.02 µM): 0.0907
- relative viability (NCI-H838; first compound 0.0002 µM): 0.533
- relative viability (NCI-H838; first compound 0.000632 µM): 0.386
- relative viability (NCI-H838; first compound 0.002 µM): 0.198
- relative viability (NCI-H838; first compound 0.006325 µM): 0.161
- relative viability (NCI-H838; first compound 0.02 µM): 0.108
- relative viability (EPLC-272H; first compound 0.0002 µM): 0.304
- relative viability (EPLC-272H; first compound 0.000632 µM): 0.242
- relative viability (EPLC-272H; first compound 0.002 µM): 0.194
- relative viability (EPLC-272H; first compound 0.006325 µM): 0.0792
- relative viability (EPLC-272H; first compound 0.02 µM): 0.0848
- relative viability (NCI-H1944; first compound 0.0002 µM): 0.182
- relative viability (NCI-H1944; first compound 0.000632 µM): 0.188
- relative viability (NCI-H1944; first compound 0.002 µM): 0.163
- relative viability (NCI-H1944; first compound 0.006325 µM): 0.133
- relative viability (NCI-H1944; first compound 0.02 µM): 0.0967
- relative viability (ChaGo-K-1; first compound 0.0002 µM): 0.431
- relative viability (ChaGo-K-1; first compound 0.000632 µM): 0.408
- relative viability (ChaGo-K-1; first compound 0.002 µM): 0.283
- relative viability (ChaGo-K-1; first compound 0.006325 µM): 0.192
- relative viability (ChaGo-K-1; first compound 0.02 µM): 0.149
- relative viability (SK-MES-1; first compound 0.0002 µM): 0.664
- relative viability (SK-MES-1; first compound 0.000632 µM): 0.667
- relative viability (SK-MES-1; first compound 0.002 µM): 0.364
- relative viability (SK-MES-1; first compound 0.006325 µM): 0.273
- relative viability (SK-MES-1; first compound 0.02 µM): 0.179
- relative viability (LCLC-103H; first compound 0.0002 µM): 0.347
- relative viability (LCLC-103H; first compound 0.000632 µM): 0.344
- relative viability (LCLC-103H; first compound 0.002 µM): 0.308
- relative viability (LCLC-103H; first compound 0.006325 µM): 0.282
- relative viability (LCLC-103H; first compound 0.02 µM): 0.248
- relative viability (NCI-H1395; first compound 0.0002 µM): 0.434
- relative viability (NCI-H1395; first compound 0.000632 µM): 0.45
- relative viability (NCI-H1395; first compound 0.002 µM): 0.442
- relative viability (NCI-H1395; first compound 0.006325 µM): 0.283
- relative viability (NCI-H1395; first compound 0.02 µM): 0.334
- relative viability (NCI-H2085; first compound 0.0002 µM): 0.735
- relative viability (NCI-H2085; first compound 0.000632 µM): 0.651
- relative viability (NCI-H2085; first compound 0.002 µM): 0.461
- relative viability (NCI-H2085; first compound 0.006325 µM): 0.389
- relative viability (NCI-H2085; first compound 0.02 µM): 0.194
